Laboratory results published in article PMC12717519, “Chemical clues to infection: A pilot study on the differential secondary metabolite production during the life cycle of selected Cordyceps species” (IMA Fungus, 2025).
≈ marks a conversion by molar mass, not a printed value. Read-outs that look alike come from different tables or passages of the source.

Columns and labels:
[1] = system: Human endocervival adenocarcinoma (KB3.1); assay: cells; format: cell-based
Protocol: (§1) Serial dilution assays were performed in 96-well microtiter plates to determine the minimum inhibitory concentrations (MICs) against a panel of yeasts, filamentous fungi, and bacteria, as well as the half-maximal inhibitory concentrations (IC50) against human cell lines, following our previously described protocol ([Charria-Girón et al. 2023]).

[2] = system: Staphylococcus aureus (DSM 346); assay: microbe, parasite or virus in culture; format: cell-based
Protocol: as §1

[3] = system: Bacillus subtilis (DSM 10); assay: microbe, parasite or virus in culture; format: cell-based; conditions: serial dilution in 96-well microtiter plates, tested up to 67 µg/mL
Protocol: as §1

[4] = system: Mouse fibroblast (L929); assay: Cytotoxicity assay; format: cell-based; conditions: serial dilution in 96-well plates
[5] = system: Candida albicans (DSM 1665); assay: MIC serial dilution assay; format: cell-based; conditions: serial dilution in 96-well microtiter plates, tested up to 67 µg/mL
Protocol: as §1

[6] = system: Pseudomonas aeruginosa (PA14); assay: MIC serial dilution assay; format: cell-based; conditions: serial dilution in 96-well microtiter plates, tested up to 67 µg/mL
Protocol: as §1

[7] = system: Mucor hiemalis (DSM 2656); assay: MIC serial dilution assay; format: cell-based; conditions: serial dilution in 96-well microtiter plates, tested up to 67 µg/mL
Protocol: as §1

[8] = system: Escherichia coli (DSM 1116); assay: MIC serial dilution assay; format: cell-based; conditions: serial dilution in 96-well microtiter plates, tested up to 67 µg/mL
Protocol: as §1

[9] = system: Mycobacterium smegmatis (ATCC 700084); assay: MIC serial dilution assay; format: cell-based; conditions: serial dilution in 96-well microtiter plates, tested up to 67 µg/mL
Protocol: as §1

[10] = Solubility in deuterated solvents (for NMR); format: physicochemical; conditions: observation during NMR sample preparation; deuterated solvents / deuterated DMSO
[11] = system: beet armyworm (Spodoptera exigua, Lepidoptera); assay: Virulence of purified compounds against beet armyworm larvae (injection); format: in vivo; conditions: larvae injected with 0.5 µL of DMSO dilutions (40 to 0.625 µg/mL), n = 6 per concentration, 25 °C
Protocol: To evaluate the virulence of purified compounds against beet armyworm larvae, beauveriolides I (4) and M (5) were selected based on availability, and cytochalasin D served as a positive control. […] Larvae were injected with 0.5 µL of each dilution (n = 6 per concentration), maintained at 25 °C for one week, and monitored daily to assess mortality. Saline ([…]) and DMSO served as negative controls.
For proof of concept, beauveriolides I (4) and M (5) were selected based on availability and tested following the spore-suspension protocol but considering only total mortality, with cytochalasin D, a mycotoxin commonly produced by Metarhizium spp., used as a positive control ([Kobmoo et al. 2024]).

[12] = system: Acinetobacter baumannii (DSM 30008); assay: MIC serial dilution assay; format: cell-based; conditions: serial dilution in 96-well microtiter plates, tested up to 67 µg/mL
Protocol: as §1

[13] = system: Schizosaccharomyces pombe (DSM 70572); assay: MIC serial dilution assay; format: cell-based; conditions: serial dilution in 96-well microtiter plates, tested up to 67 µg/mL
Protocol: as §1

[14] = system: Rhodotorula glutinis (DSM 10134); assay: MIC serial dilution assay; format: cell-based; conditions: serial dilution in 96-well microtiter plates, tested up to 67 µg/mL
Protocol: as §1

[15] = system: Wickerhamomyces anomalus (DSM 6766); assay: MIC serial dilution assay; format: cell-based; conditions: serial dilution in 96-well microtiter plates, tested up to 67 µg/mL
Protocol: as §1

[16] = system: Chromobacterium violaceum (DSM 30191); assay: MIC serial dilution assay; format: cell-based; conditions: serial dilution in 96-well microtiter plates, tested up to 67 µg/mL
Protocol: as §1

[17] = KB3.1, serial dilution in 96-well plates, read-out: IC50
[18] = serial dilution in 96-well microtiter plates, tested up to 67 µg/mL
[19] = Homo sapiens, KB 3-1, KB3.1, serial dilution in 96-well plates, read-out: IC50
[20] = Staphylococcus aureus, DSM346, serial dilution in 96-well microtiter plates, tested up to 67 µg/mL, read-out: MIC
[21] = Bacillus subtilis, DSM10, read-out: MIC
[22] = Candida albicans, DSM1665, read-out: MIC
[23] = Pseudomonas aeruginosa, PA14, read-out: MIC
[24] = Mucor hiemalis, DSM2656, read-out: MIC
[25] = Escherichia coli, DSM1116, read-out: MIC
[26] = Mycolicibacterium smegmatis, ATCC700084, read-out: MIC
[27] = Chromobacterium violaceum, DSM30191, read-out: MIC

| Compound | IC50 [1, 17] [µM] | MIC [3] | IC50 [4] [µM] | MIC [5] | MIC [6] | MIC [7] | MIC [8] | MIC [9] | MIC [2, 18] | also measured |
| --- | --- | --- | --- | --- | --- | --- | --- | --- | --- | --- |
| CCCC[C@H](C)[C@@H]1CC(=O)N[C@@H](C)C(=O)N[C@@H](C)C(=O)N[C@H](CC(C)C)C(=O)O1 [Compound 3, Beauveriolide S] | > 36.5 | n.i. (No inhibition up to 67 µg/mL) | > 36.5 | n.i. (No inhibition up to 67 µg/mL) | n.i. (No inhibition up to 67 µg/mL) | n.i. (No inhibition up to 67 µg/mL) | n.i. (No inhibition up to 67 µg/mL) | n.i. (No inhibition up to 67 µg/mL) | – | MIC ([2]; DSM 346): 66.6 µg/mL (≈ 162 µM); solubility in deuterated solvents [10]: insoluble |
| CCCC[C@H](C)[C@@H]1CC(=O)N[C@@H](C(C)C)C(=O)N[C@@H](C)C(=O)N[C@H](CC(C)C)C(=O)O1 [Compound 5, beauveriolide M] | > 36.5 | n.i. (No inhibition up to 67 µg/mL) | > 36.5 | n.i. (No inhibition up to 67 µg/mL) | n.i. (No inhibition up to 67 µg/mL) | – | n.i. (No inhibition up to 67 µg/mL) | n.i. (No inhibition up to 67 µg/mL) | n.i. (No inhibition up to 67 µg/mL) | insecticidal activity over 7 days ([11]; total mortality): no insecticidal |
| CCCC[C@H](C)[C@@H]1CC(=O)N[C@@H](Cc2c[nH]c3ccccc23)C(=O)N[C@@H](Cc2ccccc2)C(=O)N[C@H](CC(C)C)C(=O)O1 [Compound 7, beauveriolide Jb] | – | n.i. (No inhibition up to 67 µg/mL) | > 36.5 | n.i. (No inhibition up to 67 µg/mL) | n.i. (No inhibition up to 67 µg/mL) | n.i. (No inhibition up to 67 µg/mL) | n.i. (No inhibition up to 67 µg/mL) | n.i. (No inhibition up to 67 µg/mL) | n.i. (No inhibition up to 67 µg/mL) | IC50 [1]: 36.5 µM; MIC [12]: n.i. (No inhibition up to 67 µg/mL); MIC [13]: n.i. (No inhibition up to 67 µg/mL); MIC [14]: n.i. (No inhibition up to 67 µg/mL); MIC [15]: n.i. (No inhibition up to 67 µg/mL); MIC [16]: n.i. (No inhibition up to 67 µg/mL) |
| CC(=O)c1nccc2c1[nH]c1ccccc12 [Compound 11, 1-acetyl-β-carboline] | – | – | – | – | – | – | – | – | – | IC50 [1, 19]: > 36.5 µM; MIC [2, 20]: > 67 µg/mL; MIC [3, 21]: > 67 µg/mL; IC50 ([4]; Mus musculus): > 36.5 µM; MIC [5, 22]: > 67 µg/mL; MIC [6, 23]: > 67 µg/mL; MIC [7, 24]: > 67 µg/mL; MIC [8, 25]: > 67 µg/mL; MIC [9, 26]: > 67 µg/mL |
| CC(=O)c1nc(C(=O)O)cc2c1[nH]c1ccccc12 [Compound 12, 1-acetyl-3-carboxy-β-carboline] | – | – | – | – | – | – | – | – | – | IC50 [1, 19]: > 36.5 µM; MIC [2, 20]: > 67 µg/mL; MIC [3, 21]: > 67 µg/mL; IC50 ([4]; Mus musculus): > 36.5 µM; MIC ([12]; Acinetobacter baumannii, DSM30008, read-out: MIC): > 67 µg/mL; MIC [5, 22]: > 67 µg/mL; MIC ([13]; Schizosaccharomyces pombe, DSM70572, read-out: MIC): > 67 µg/mL; MIC [6, 23]: > 67 µg/mL; MIC ([14]; Rhodotorula glutinis, DSM10134, read-out: MIC): > 67 µg/mL; MIC ([15]; Hansenula anomala, DSM6766, read-out: MIC): > 67 µg/mL; MIC [7, 24]: > 67 µg/mL; MIC [16, 27]: > 67 µg/mL; MIC [8, 25]: > 67 µg/mL; MIC [9, 26]: > 67 µg/mL |
| C=C1[C@@H](C)[C@H]2[C@H](Cc3ccccc3)NC(=O)[C@]23[C@H](OC(C)=O)/C=C/[C@@](C)(O)C(=O)[C@@H](C)C/C=C/[C@H]3[C@@H]1O [cytochalasin D, reference compound] | – | – | – | – | – | – | – | – | – | total mortality (TM) by day 2 ([11]; concentration of the value not stated): 83% |
| CNC(C)C1CCC(N)C(OC2C(N)CC(N)C(OC3OCC(C)(O)C(NC)C3O)C2O)O1 (stereo not drawn) [gentamicin, reference compound] | – | – | – | – | – | – | – | – | – | MIC [2, 20]: 0.21 µg/mL (≈ 0.44 µM); MIC [6, 23]: 0.21 µg/mL (≈ 0.44 µM); MIC [16, 27]: 1.7 µg/mL (≈ 3.56 µM); MIC [8, 25]: 0.42 µg/mL (≈ 0.879 µM) |
| NC[C@H]1O[C@H](O[C@H]2[C@H](O)[C@@H](O[C@H]3O[C@H](CO)[C@@H](O)[C@H](N)[C@H]3O)[C@H](N)C[C@@H]2N)[C@H](O)[C@@H](O)[C@@H]1O [kanamycin, reference compound] | – | – | – | – | – | – | – | 1.70^K µg/mL | – | – |
| C[C@@H]1[C@H](O)[C@@H](C)/C=C/C=C/CC/C=C/C=C/C=C/C=C/C(O[C@H]2O[C@H](C)[C@@H](O)[C@H](N)[C@@H]2O)CC2O[C@](O)(CC(O)C(O)CCC(O)CC(O)CC(O)CC(=O)O[C@H]1C)CC(O)C2C(=O)O (stereo partly drawn) [nystatin, reference compound] | – | – | – | 8.3^N µg/mL | – | 8.30^N µg/mL | – | – | – | MIC [13]: 8.30^N µg/mL; MIC [14]: 4.20^N µg/mL; MIC [15]: 16.6^N µg/mL |
| CN(C)[C@@H]1C(O)=C(C(N)=O)C(=O)[C@@]2(O)C(O)=C3C(=O)c4c(O)cccc4[C@@](C)(O)[C@H]3[C@H](O)[C@@H]12 [oxytetracycline, reference compound] | – | – | – | – | – | – | – | – | – | MIC [3, 21]: 16.6 µg/mL (≈ 36.1 µM) |
| beauveriolide L [Compound 6] | > 36.5 | n.i. (No inhibition up to 67 µg/mL) | > 36.5 | n.i. (No inhibition up to 67 µg/mL) | n.i. (No inhibition up to 67 µg/mL) | n.i. (No inhibition up to 67 µg/mL) | n.i. (No inhibition up to 67 µg/mL) | n.i. (No inhibition up to 67 µg/mL) | n.i. (No inhibition up to 67 µg/mL) | – |
| cyclo-((S)-Pro-(R)-Ile) [Compound 9] | > 36.5 | n.i. (No inhibition up to 67 µg/mL) | > 36.5 | n.i. (No inhibition up to 67 µg/mL) | n.i. (No inhibition up to 67 µg/mL) | n.i. (No inhibition up to 67 µg/mL) | n.i. (No inhibition up to 67 µg/mL) | n.i. (No inhibition up to 67 µg/mL) | n.i. (No inhibition up to 67 µg/mL) | MIC [12]: n.i. (No inhibition up to 67 µg/mL); MIC [13]: n.i. (No inhibition up to 67 µg/mL); MIC [14]: n.i. (No inhibition up to 67 µg/mL); MIC [15]: n.i. (No inhibition up to 67 µg/mL); MIC [16]: n.i. (No inhibition up to 67 µg/mL) |
| cyclo-((S)-Pro-(R)-Leu) [Compound 8] | > 36.5 | n.i. (No inhibition up to 67 µg/mL) | > 36.5 | n.i. (No inhibition up to 67 µg/mL) | n.i. (No inhibition up to 67 µg/mL) | n.i. (No inhibition up to 67 µg/mL) | n.i. (No inhibition up to 67 µg/mL) | n.i. (No inhibition up to 67 µg/mL) | n.i. (No inhibition up to 67 µg/mL) | MIC [12]: n.i. (No inhibition up to 67 µg/mL); MIC [13]: n.i. (No inhibition up to 67 µg/mL); MIC [14]: n.i. (No inhibition up to 67 µg/mL); MIC [15]: n.i. (No inhibition up to 67 µg/mL); MIC [16]: n.i. (No inhibition up to 67 µg/mL) |
| cyclo-((S)-Val-(R)-Val) [Compound 10] | > 36.5 | n.i. (No inhibition up to 67 µg/mL) | > 36.5 | n.i. (No inhibition up to 67 µg/mL) | n.i. (No inhibition up to 67 µg/mL) | n.i. (No inhibition up to 67 µg/mL) | n.i. (No inhibition up to 67 µg/mL) | n.i. (No inhibition up to 67 µg/mL) | n.i. (No inhibition up to 67 µg/mL) | – |
